From patent publication US6777237B2, “Bioconjugates and delivery of bioactive agents” (University of Utah Research Foundation, priority 1996, dated 2004)

What was measured:
[1] = tested on: HCT-116 cell line; test: MTT cell viability assay, HCT-116 cell line; type: cell-based, human; conditions: for IC50: HCT-116
[2] = tested on: HL-60 cell line; test: MTT cell viability assay, HL-60 cell line; type: cell-based, human; conditions: for IC50: HL-60
[3] = tested on: B-16 cell line; test: MTT cell viability assay, B-16 cell line; type: cell-based, mouse
[4] = tested on: Meth-A cell line; test: MTT cell viability assay, Meth-A cell line; type: cell-based, mouse
[5] = tested on: RD-995 cell line; test: MTT cell viability assay, RD-995 cell line; type: cell-based, mouse
[6] = Thermal stability of bioconjugates in media (UV-vis, then photolysis check); type: physicochemical
[7] = Anaerobic continuous-wave photolysis of methylcob(III)alamin; type: physicochemical; conditions: 514 nm light from an Argon-ion laser
Experimental: A protocol for a typical anaerobic continuous-wave photolysis of methylcob(III)alamin or CH3Cbl^III is as follows. An aqueous solution of 200 μM CH3Cbl^III and 50 mM K^+ Hepes pH 7.3 is placed in a 1 cm quartz cuvette. Samples that are to be photolyzed under anaerobic conditions are either subjected to repeated freeze-pump-thaw cycles, or purged with Ar for 40 minutes immediately prior to photolysis and sealed. Continuous-wave visible light irradiation is accomplished at the desired wavelength with an Ar^+ pumped dye laser. The incident light on the face of the cuvette is reduced to 12 mW cm^−2 with neutral density filters. The light flux is determined by potassium ferrioxalate actinomety and by a Scientech surface-reading thermopile. The cuvette is placed in a thermostated cell holder at 25-37° C. […] The magnetic field within the area of the cuvette is homogeneous to within 2% and the long term stability is better than 0.5% as monitored by a transverse Hall probe and digital teslameter.
Absorption spectra from 300-600 nm are recorded in one second with a diode array spectrophotometer at variable time intervals from 10 seconds to 2 minutes (depending upon the fluence of the photolyzing light source) for a total of 3 τ1/2. […] The concentration of CH3Cbl^III is determined using the measured absorbance at 350 or 520 nm by the method of Chen and Chance (1993). […]

[8] = Photolysis (10 min irradiation, 1 h after treatment)
[9] = Homo sapiens, unconjugated chlorambucil
[10] = Mus musculus, unconjugated chlorambucil

2-[4-(4′-[bis-(2-chloroethyl)amino]phenyl)butyroxy]ethylcob(III)alamin [compound 3]
LD50 ([1]; HCT-116, FIG. 5, brief irradiation with red light 12 hours after dosing): 0.08 µM
toxicity ([1]; HCT-116, FIG. 5, no photolysis, at concentrations approaching 100 μM): no substantial toxicity
LD50 ([1]; HCT-116, FIG. 5, photolysis with 10-fold excess of vitamin B12 added): 2 µM
IC50 [1, 8]: 1700 nM
LD50 ([2]; HL-60, FIG. 6, bioconjugate, no photolysis): 0.2 µM
fold better than unconjugated chlorambucil standard (LD50) ([2]; HL-60, FIG. 6, no photolysis): at least 2 fold
toxicity ([2]; HL-60, FIG. 6, with addition of 10 equivalents of vitamin B12, no photolysis): absence of toxicity
IC50 ([2]; No Photolysis): 3200 nM
IC50 [3, 8]: 600 nM
IC50 ([4]; No Photolysis): 210000 nM
IC50 [4, 8]: 200 nM
IC50 [5, 8]: 200 nM
thermal lability [6]: thermal lability

C/C1=C2/[N-][C@H]([C@H](CC(N)=O)[C@@]2(C)CCC(=O)NC[C@@H](C)OP(=O)([O-])O[C@H]2[C@@H](O)[C@@H](n3cnc4cc(C)c(C)cc43)O[C@@H]2CO)[C@]2(C)N=C(/C(C)=C3N=C(/C=C4N=C1[C@@H](CCC(N)=O)C\4(C)C)[C@@H](CCC(N)=O)[C@]\3(C)CC(N)=O)[C@@H](CCC(N)=O)[C@]2(C)CC(N)=O.[CH3-].[Co] [CH3Cbl^III, methylcob(III)alamin]
photolysis quantum yield [7]: about 0.3

O=C(O)CCCc1ccc(N(CCCl)CCCl)cc1 [Chlorambucil, reference compound]
LD50 ([1]; HCT-116, FIG. 5, chlorambucil alone): about 2 μM
IC50 [1, 9]: 20800 nM
LD50 ([2]; HL-60, FIG. 6, unconjugated chlorambucil standard): 0.5 µM
IC50 [2, 9]: 5800 nM
IC50 ([3]; Mus musculus, B16, unconjugated chlorambucil): 1400 nM
IC50 [4, 10]: 1800 nM
IC50 [5, 10]: 1100 nM

4-[4′-(bis-[2-chloroethyl]amino)phenyl]butyroylcob(III)alamin [compound 4]
IC50 [1, 8]: 1100 nM
IC50 ([2]; No Photolysis): 8900 nM
IC50 [3, 8]: 300 nM
IC50 ([4]; No Photolysis): 84200 nM
IC50 [4, 8]: 300 nM
IC50 [5, 8]: 300 nM
thermal lability [6]: thermal lability
